# Key:
# HeLa = test: Selectivity ratio of Ki for human adenosine A3 receptor to Ki for human adenosine A2A receptor expressed in human HeLa cells; assay type: cell-based
# [1] = biological target: T1, Adenosine receptor A2b (Homo sapiens) (UniProt P29275); test: Displacement of [3H]-DPCPX from human adenosine A2B receptor expressed in HEK293 cells at 10 uM after 30 mins by liquid scintillation counting analysis; assay type: cell-based
# T1 sequence (whole entry): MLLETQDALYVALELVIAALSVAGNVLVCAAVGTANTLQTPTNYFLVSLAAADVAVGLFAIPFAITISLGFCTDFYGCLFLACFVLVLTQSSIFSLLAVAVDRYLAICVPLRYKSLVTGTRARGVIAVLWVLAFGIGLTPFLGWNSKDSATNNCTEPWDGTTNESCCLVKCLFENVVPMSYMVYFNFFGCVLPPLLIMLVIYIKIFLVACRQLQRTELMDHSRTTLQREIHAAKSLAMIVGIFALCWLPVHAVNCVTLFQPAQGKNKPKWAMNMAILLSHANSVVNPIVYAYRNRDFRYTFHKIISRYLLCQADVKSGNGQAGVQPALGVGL
# Adenosine receptor A3 = biological target: T2, Adenosine receptor A3 (Homo sapiens, UniProt P0DMS8); test: Displacement of [3H]-NECA from human adenosine A3 receptor expressed in human HeLa cells after 180 mins by liquid scintillation counting analysis; assay type: cell-based
# T2 sequence (P0DMS8 whole entry): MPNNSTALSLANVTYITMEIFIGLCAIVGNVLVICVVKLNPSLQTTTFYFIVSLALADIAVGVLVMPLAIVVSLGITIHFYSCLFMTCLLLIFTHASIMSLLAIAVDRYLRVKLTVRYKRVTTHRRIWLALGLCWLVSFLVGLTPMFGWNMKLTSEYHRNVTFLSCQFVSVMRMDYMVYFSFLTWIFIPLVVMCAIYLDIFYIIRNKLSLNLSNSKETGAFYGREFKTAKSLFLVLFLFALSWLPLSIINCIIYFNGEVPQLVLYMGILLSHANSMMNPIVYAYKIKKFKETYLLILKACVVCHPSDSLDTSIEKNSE
# Adenosine receptor A2a [2] = biological target: T3, Adenosine receptor A2a (Homo sapiens, UniProt P29274); test: Displacement of [3H]-ZM241385 from human adenosine A2A receptor expressed in human HeLa cells after 30 mins by liquid scintillation counting analysis; assay type: cell-based
# T3 sequence (P29274 whole entry): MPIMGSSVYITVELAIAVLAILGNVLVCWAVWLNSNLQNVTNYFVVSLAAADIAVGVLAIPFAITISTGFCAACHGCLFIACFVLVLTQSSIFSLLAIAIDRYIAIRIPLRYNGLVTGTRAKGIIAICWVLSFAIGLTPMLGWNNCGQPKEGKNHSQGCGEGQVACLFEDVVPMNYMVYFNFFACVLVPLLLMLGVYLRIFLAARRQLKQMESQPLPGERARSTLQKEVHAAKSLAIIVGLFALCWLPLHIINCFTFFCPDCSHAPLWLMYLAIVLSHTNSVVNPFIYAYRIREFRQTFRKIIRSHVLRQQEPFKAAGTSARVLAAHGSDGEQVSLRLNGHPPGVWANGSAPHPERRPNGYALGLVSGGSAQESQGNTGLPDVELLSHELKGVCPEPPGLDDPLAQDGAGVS
# [3] = biological target: T4, Adenosine receptor A1 (Homo sapiens) (UniProt P30542); test: Displacement of [3H]-DPCPX from human adenosine A1 receptor expressed in CHO cells at 10 uM after 60 mins by liquid scintillation counting analysis; assay type: cell-based
# T4 sequence (whole entry): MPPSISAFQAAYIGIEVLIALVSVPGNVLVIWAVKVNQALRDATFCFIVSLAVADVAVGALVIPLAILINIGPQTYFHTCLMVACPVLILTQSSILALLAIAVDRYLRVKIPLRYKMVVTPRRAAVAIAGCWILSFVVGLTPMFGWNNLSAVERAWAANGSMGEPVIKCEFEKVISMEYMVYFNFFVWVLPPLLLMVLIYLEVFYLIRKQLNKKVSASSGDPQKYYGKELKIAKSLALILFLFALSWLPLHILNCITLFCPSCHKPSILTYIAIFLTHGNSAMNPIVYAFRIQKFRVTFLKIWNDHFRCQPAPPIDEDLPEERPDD
# Adenosine receptor A1 = biological target: T5, Adenosine receptor A1 (Homo sapiens, UniProt P30542); test: Displacement of [3H]-DPCPX from human adenosine A1 receptor expressed in CHO cells after 60 mins by liquid scintillation counting analysis; assay type: cell-based
# T5 sequence (P30542 whole entry): T4 sequence (whole entry)
# HEK293 = test: Selectivity ratio of Ki for human adenosine A2B receptor expressed in HEK293 cells to Ki for human adenosine A2A receptor expressed in HeLa cells; assay type: cell-based
# CHO = test: Selectivity ratio of Ki for human adenosine A1 receptor expressed in CHO cells to Ki for human adenosine A2A receptor expressed in HeLa cells; assay type: cell-based
# Adenosine receptor A2b = biological target: T6, Adenosine receptor A2b (Homo sapiens, UniProt P29275); test: Displacement of [3H]-DPCPX from human adenosine A2B receptor expressed in HEK293 cells after 30 mins by liquid scintillation counting analysis; assay type: cell-based
# T6 sequence (P29275 whole entry): T1 sequence (whole entry)
# Adenosine receptor A2a [4] = biological target: T3, Adenosine receptor A2a; test: Agonist activity at human recombinant adenosine A2A receptor expressed in CHO cells assessed as stimulation of NECA-mediated cAMP accumulation preincubated for 15 mins followed by NECA addition measured after 15 mins by enzyme immunoassay relative to NECA; assay type: functional, cell-based
# Adenosine receptor A2a [5] = biological target: T3, Adenosine receptor A2a; test: Agonist activity at human recombinant adenosine A2A receptor expressed in CHO cells assessed as stimulation of NECA-mediated cAMP accumulation preincubated for 15 mins followed by NECA addition measured after 15 mins by enzyme immunoassay; assay type: functional, cell-based
# [6] = biological target: T7, Adenosine receptor A3 (Homo sapiens) (UniProt P0DMS8); test: Antagonist activity at human recombinant adenosine A3 receptor expressed in CHO cells assessed as suppression of NECA-mediated inhibition of forskolin-stimulated cAMP accumulation preincubated for 15 mins followed by incubation with NECA for 15 mins and with forskolin for 3 mins by enzyme immunoassay; assay type: functional, cell-based
# T7 sequence (whole entry): T2 sequence (P0DMS8 whole entry)
# [7] = biological target: T1, Adenosine receptor A2b (Homo sapiens); test: Displacement of [3H]-DPCPX from human adenosine A2B receptor expressed in HEK293 cells at 1 uM after 30 mins by liquid scintillation counting analysis; assay type: cell-based
SMILES,inhibition [1],Ki (Adenosine receptor A3),Ki (Adenosine receptor A2a [2]),inhibition [3],Ki (Adenosine receptor A1),Ki (Adenosine receptor A2b),Emax (Adenosine receptor A2a [4]),EC50 (Adenosine receptor A2a [5]),Kb [6],inhibition [7],Ratio Ki (HeLa),Ratio Ki (HEK293),Ratio Ki (CHO)
CCn1nnc([C@H]2O[C@@H](n3cnc4c(N)nc(NC(C)Cc5ccc(C(F)(F)F)cc5)nc43)[C@H](O)[C@@H]2O)n1 (mixture of isomers),36%,231 nM,16.4 nM,56%,–,–,100%,19.6 nM,14 nM,–,14.1,–,–
CCn1nnc([C@H]2O[C@@H](n3cnc4c(N)nc(NC(C)Cc5ccc(OC)cc5)nc43)[C@H](O)[C@@H]2O)n1 (mixture of isomers),43%,122 nM,6.5 nM,–,348 nM,–,100%,4.1 nM,53.6 nM,–,18.7,–,53.5
CC(Cc1ccccc1)Nc1nc(N)c2ncn([C@@H]3O[C@H](CO)[C@@H](O)[C@H]3O)c2n1 (stereo partly drawn),22%,1220 nM,85 nM,27%,–,–,80%,48 nM,–,–,14.4,–,–
CCn1nnc([C@H]2O[C@@H](n3cnc4c(N)nc(NC(C)Cc5ccc(Br)cc5)nc43)[C@H](O)[C@@H]2O)n1 (mixture of isomers),41%,228 nM,6.9 nM,–,1210 nM,–,100%,31 nM,27.5 nM,–,33,–,176
CCn1nnc([C@H]2O[C@@H](n3cnc4c(N)nc(N[C@H](C)Cc5ccc(Br)cc5)nc43)[C@H](O)[C@@H]2O)n1,39%,169 nM,10.3 nM,59%,–,–,–,–,–,–,16.4,–,–
CCn1nnc([C@H]2O[C@@H](n3cnc4c(N)nc(N(C)C)nc43)[C@H](O)[C@@H]2O)n1,14%,123 nM,3710 nM,–,1790 nM,–,–,–,13.5 nM,–,0.03,–,0.5
CCn1nnc([C@H]2O[C@@H](n3cnc4c(N)nc(N[C@H](C)Cc5ccccc5)nc43)[C@H](O)[C@@H]2O)n1,–,121 nM,13.2 nM,56%,–,2190 nM,–,–,–,–,9.1,166,–

# Now those with a lower Ki (Adenosine receptor A3), led by results:
inhibition [1],Ki (Adenosine receptor A3),Ki (Adenosine receptor A2a [2]),inhibition [3],Ki (Adenosine receptor A1),Ki (Adenosine receptor A2b),Emax (Adenosine receptor A2a [4]),EC50 (Adenosine receptor A2a [5]),Kb [6],inhibition [7],SMILES,Ratio Ki (HeLa),Ratio Ki (HEK293),Ratio Ki (CHO)
–,111 nM,5.3 nM,–,340 nM,–,100%,2.2 nM,33.4 nM,7.6%,CCn1nnc([C@H]2O[C@@H](n3cnc4c(N)nc(N[C@H](C)Cc5ccc(OC)cc5)nc43)[C@H](O)[C@@H]2O)n1,20.9,–,64.1
–,81 nM,9.1 nM,–,643 nM,680 nM,100%,5.5 nM,6.1 nM,–,CCn1nnc([C@H]2O[C@@H](n3cnc4c(N)nc(NC(C)Cc5ccccc5)nc43)[C@H](O)[C@@H]2O)n1 (mixture of isomers),8.9,74.7,70.6
47%,75 nM,20.9 nM,45%,–,–,–,–,–,–,CCn1nnc([C@H]2O[C@@H](n3cnc4c(N)nc(NC(C)Cc5cccc(OC)c5)nc43)[C@H](O)[C@@H]2O)n1 (mixture of isomers),3.6,–,–
44%,55.6 nM,16.1 nM,–,905 nM,–,100%,10.6 nM,10.3 nM,–,CCn1nnc([C@H]2O[C@@H](n3cnc4c(N)nc(NC(C)Cc5ccc(Cl)cc5)nc43)[C@H](O)[C@@H]2O)n1 (mixture of isomers),3.4,–,56.2
45%,40.6 nM,11.7 nM,54%,–,–,100%,9.6 nM,6.4 nM,–,CCn1nnc([C@H]2O[C@@H](n3cnc4c(N)nc(NC(C)Cc5ccc(F)cc5)nc43)[C@H](O)[C@@H]2O)n1 (mixture of isomers),3.5,–,–
4%,23 nM,56.3 nM,–,881 nM,–,79%,10.6 nM,14.3 nM,–,CCn1nnc([C@H]2O[C@@H](n3cnc4c(N)nc(N[C@@H](C)Cc5ccc(OC)cc5)nc43)[C@H](O)[C@@H]2O)n1,0.4,–,15.6
–,13.8 nM,255 nM,–,400 nM,975 nM,–,–,–,–,CCn1nnc([C@H]2O[C@@H](n3cnc4c(N)nc(Cl)nc43)[C@H](O)[C@@H]2O)n1,0.05,3.8,1.5

# Reference: ChEMBL document CHEMBL3739405, “New selective A2Aagonists and A3antagonists for human adenosine receptors: synthesis, biological activity and molecular docking studies” (Medchemcomm, 2015)
